Experimental data published in patent publication US9265816B2, “Immunogenic WT-1 peptides and methods of use thereof” (priority 2006, dated 2016).
Residues, ends and D or L forms follow the SMILES beside them.

Legend:
[1] = test system: JMN (WT1+ mesothelioma cell line); type: cell-based, human
Method: (§1) FIG. 9, left panel. […] The presence of specific CTL was measured in a standard 4 h-chromium release assay. Target cells were pulsed with 10 microgram (mcg)/ml of synthetic peptides overnight at 37° C. and labeled with 300 μCi of Na2^51CrO4 (NEN Life Science Products, Inc., Boston, Mass.). After extensive washing, target cells were incubated with T cells at an E:T ratio ranging from 100:1 to 10:1. All conditions were performed in triplicate. Plates were incubated for 4 hours at 37° C. in 5% CO2. Supernatant fluids were harvested and radioactivity was measured in a gamma counter. Percent specific lysis was determined from the following formula: 100×[(experimental release minus spontaneous release)/(maximum release minus spontaneous release)]. Maximum release was determined by lysis of radiolabeled targets in 2.5% Triton X-100.

[2] = test system: 697 (WT1+ leukemia cell line); type: cell-based, human
Method: FIG. 9, left panel. […] CD8^+ T cells were incubated with radiolabeled target cells (pulsed or unpulsed 697 (A0201^+, WT1^+) or SKLY16 (A0201+, WT1-) at 3 different E:T ratios: Grey bars 100:1; Black bars 30:1; White bars 10:1. Y axis: percentage of cytotoxicity. X axis: target cell conditions. *-p<0.05 compared to SKLY16 controls at the same E:T ratio. Right panel: CD8+ T cells isolated as described for the left panel were incubated with radiolabeled JMN (solid line A0201+ WT1+) or MeWo (dashed line A0201+, WT1-) target cells at 4 different E:T ratios: Y axis: percentage of cytotoxicity. X axis: E:T ratios. P was <0.001 compared to MeWo controls. The presence of specific CTL was measured in a standard 4 h-chromium release assay. Target cells were pulsed with 10 microgram (mcg)/ml of synthetic peptides overnight at 37° C. and labeled with 300 μCi of Na2^51CrO4 (NEN Life Science Products, Inc., Boston, Mass.). After extensive washing, target cells were incubated with T cells at an E:T ratio ranging from 100:1 to 10:1. […] Supernatant fluids were harvested and radioactivity was measured in a gamma counter. Percent specific lysis was determined from the following formula: 100×[(experimental release minus spontaneous release)/(maximum release minus spontaneous release)]. Maximum release was determined by lysis of radiolabeled targets in 2.5% Triton X-100.

CD3+ T cells [3] = test: Cross-priming: T cells stimulated with DCs incubated with tumor lysates, IFN-gamma ELISPOT against peptide-pulsed DCs; type: cell-based, human; conditions: for experiments in which lysate-stimulated T cells recognized the peptide: WT1 positive tumor lysates, 5 separate donors
Method: A CD3^+ in vitro stimulation was performed as described above. 2×10^6 immature DCs were incubated with total cellular lysate from 2×10^6 tumor cells that was previously prepared by 3 freeze/thaw cycles. Following an 18 hour incubation, maturation cytokines were added to the DCs as described above. […] These DCs were exposed to peptide again during the ELISPOT assay as described above.
Total tumor lysates were prepared from 3 different cell lines: 697 (WT1^+, HLA A0201^+), an e1a2 leukemia cell line; JMN (WT1^+, HLA A0201^+) a biphasic mesothelioma cell line, and as a control, MeWo (WT1^−, HLA A0201^+), a malignant melanoma cell line. DCs from healthy A0201^+ donors were incubated for 18 hours with the tumor lysates and used to stimulate autologous CD3^+ T cells. Following 3 stimulations, the T cells were tested for their reactivity to autologous DCs pulsed with the WT1 peptides. […] These experiments were repeated in 5 separate donors.

CD3+ T cells [4] = test: IFN-gamma ELISPOT of peptide-stimulated T cells from healthy donors with different HLA-DRB1 types; type: cell-based, human; conditions: for experiments with peptide specific T cell responses: 7 healthy donors, each a different HLA-DRB1 type, positive/total experiments; for peptide specific CD4 response, IFN-γ ELISPOT: donors with different HLA-DRB1 types, FIG. 5
Method: PBMC were Ficoll-purified from blood and resuspended at 5×10^6/ml in Ex-Vivo-150® medium (BioWhittaker, Walkersville, Md.) containing 1% autologous plasma. After a 2-hour incubation at 37° C., the non-adherent fraction was harvested and washed repeatedly with PBS, then resuspended in media containing 1×10^3 IU/ml GM-CSF and 0.0032 IU/ml IL-4. On day 2 and 4, the same media was added as re-feed (i.e., ½ the volume of media, containing enough cytokines for the entire dish, was added). On day 5, 10 μg/ml of peptide was added.
On day 6, a maturation cocktail of cytokines was added, and cells were cultured for another 48 hours. The maturation cocktail consisted of: 4×10^2 IU/ml IL-1-beta, 0.0032 IU/ml IL-4, 1×10^3 IU/ml IL-6, 1×10^3 IU/ml GMCSF, […], and 1 μg/ml PGE2.
On day 7, DC were harvested and washed twice with RPMI, counted, aliquoted and resuspended at 1×10^6/ml in X-vivo 15® media (without serum). Peptides were added to a final concentration of 10 μg/ml, and incubated for 2 h, 37° C. and 5% CO2, gently re-suspending every 15 minutes, then washed twice in HBSS and re-suspended in RPMI+5% autologous plasma at an appropriate concentration depending on the number of effectors isolated in the next step.
In addition, on day 7, additional PBMC were used to generate additional DC and CD3^+ cells. DC were isolated from the adherent fraction and prepared as described above for the second stimulation of the effector cells on day 14. CD3^+ cells were isolated from the non-adherent fraction by negative selection and stimulated with the previously prepared DC by re-suspending the CD3^+ cells at a concentration of 2×10^6 cells/ml in RPMI+5% autologous plasma, and adding DC at an effector:DC ratio of 20:1 and 10 ng/ml IL-15. Cells were then plated in 2 ml and co-incubated at 37° C. and 5% CO2 for 1 week.
On day 14, the CD3^+ cells were stimulated a second time with the second batch of DC in the same manner, except that 1×10^6 cells/ml were mixed with DC at an effector:DC ratio of 50:1. On day 18, the same media was added as re-feed. On day 20, the DC from the previous generation were defrosted and incubated in maturation cytokines in X-vivo 15® media. On day 21, the ELISPOT assay was conducted.
Plates were pre-wet with 30 μl/well 70% alcohol, shaking the plates to ensure coverage of the entire surface area, washed 3 times with 150 μl/well sterile PBS, then incubated overnight at 4° C. with 10 μg/ml coating antibody (anti-INF clone) in PBS, 100 μl/well, wrapped in aluminum foil. Plates were then washed 2 times with 150 μl/well PBS and 1 time with RPMI/10% autologous plasma (AP), then blocked with 150 μl/well RPMI/5% AP for 2 hours at 37° C. PBMC were suspended in RPMI/5% AP at 1×10^6/ml. […]

HLA-A0201 = HLA-A0201 (Homo sapiens, UniProt P04439, D140Y/D185E/D98H/E176V/E277Q/G131W/G231S/I119V/I121R/I166T/I218V/L300P/L318F/N151K/N90K/P208A/P217A/Q86G/Q94H/R138H/R169H/T345S); test: T2 assay for peptide binding and stabilization of HLA A0201 molecules; type: cell-based; conditions: Example 1
Method: T2 cells (TAP^−, HLA-A0201^+) were incubated overnight at 27° C. at a concentration of 1×10^6 cells/ml in FCS-free RPMI medium supplemented with 5 μg/ml human β2m (Sigma, St Louis, Mo.) in the absence (negative control) or presence of either a positive reference tyrosinase peptide or test peptides at various final concentrations (50, 10, 1, and 0.1 micrograms (μg)/ml). Following a 4-hour incubation with 5 μg/ml brefeldin A (Sigma), T2 cells were labeled for 30 minutes at 4° C. with a saturating concentration of anti-HLA-A2.1 (BB7.2) mAb, then washed twice. Cells were then incubated for 30 minutes, 4° C. with a saturating concentration of FITC-conjugated goat IgG F(ab′)2 anti-mouse Ig (Caltag, San Francisco, Calif.), washed twice, fixed in PBS/1% paraformaldehyde and analyzed using a FACS Calibur® cytofluorometer (Becton Dickinson, Immunocytometry Systems, San Jose, Calif.).
The mean intensity of fluorescence (MIF) observed for each peptide concentration (after dividing by the MIF in the absence of peptide) was used as an indication of peptide binding and expressed as a “fluorescence index.” Stabilization assays were performed similarly. Following initial evaluation of peptide binding at time 0, cells were washed in RPMI complete medium to remove free peptides and incubated in the continuous presence of 0.5 μg/ml brefeldin-A for 2, 4, 6 or 8 hours.
The number of stable peptide-HLA-A2.1 complexes was estimated as described above by immunofluorescence. The half time of complexes is an estimate of the time required for a 50% reduction of the MIF value at time=0.

[5] = test system: MeWo (WT1- melanoma cell line); test: Chromium 51 cytotoxicity assay; type: cell-based, human
Method: as §1

[6] = human T cells stimulated 2 times with the peptide

Molecule: CSCC[C@H](NC(=O)[C@H](Cc1ccc(O)cc1)NC(=O)[C@H](C)NC(=O)[C@H](CCC(N)=O)NC(=O)CNC(=O)[C@@H](N)CO)C(=O)N[C@@H](Cc1ccccc1)C(=O)N1CCC[C@H]1C(=O)N[C@@H](CC(N)=O)C(=O)N[C@@H](C)C(=O)N1CCC[C@H]1C(=O)N[C@@H](Cc1ccc(O)cc1)C(=O)N[C@@H](CC(C)C)C(=O)N1CCC[C@H]1C(=O)N[C@@H](CO)C(=O)N[C@@H](CS)C(=O)N[C@@H](CC(C)C)C(=O)N[C@@H](CCC(=O)O)C(=O)N[C@@H](CO)C(=O)O [Peptide 122A1] (H-SGQAYMFPNAPYLPSCLES-OH)
- cytotoxicity of stimulated CD4+ cells [1]: no cytotoxicity
- A0201+ donors with similar cytotoxicity results [2]: ¾
- cytotoxicity of stimulated CD8+ cells to 697 [2]: stimulated a sufficient number of CD8^+ cells to be cytotoxic to 697

Molecule: LVRHHNMHQRNMTKL (listed as Homo sapiens) [Peptide 427]
- experiments in which lysate-stimulated T cells recognized the peptide (CD3+ T cells [3]): all experiments

Molecule: PGCNKRYFKLSHLQMHSRKHTG (listed as Homo sapiens) [Peptide 328]
- experiments with peptide specific T cell responses (CD3+ T cells [4]): 11/15
- peptide specific CD4 response, IFN-γ ELISPOT (CD3+ T cells [4]): stimulated a significant peptide specific CD4 response
- experiments in which lysate-stimulated T cells recognized the peptide (CD3+ T cells [3]): ⅗

Molecule: RSDELVRHHNMHQRNMTKL (listed as Homo sapiens) [Peptide 423]
- experiments with peptide specific T cell responses (CD3+ T cells [4]): 3/14

Molecule: TEYKLVVVGAPGVGKSALTIQ (listed as Homo sapiens) [RAS, reference compound]
- peptide specific CD4 response, IFN-γ ELISPOT (CD3+ T cells [4]): did not produce IFN-γ over background levels

Molecule: YLGEQQYSV (One or more amino acids changed compared to native peptide sequence) [WT1 B (analogue)]
- stability of binding to HLA-A0201 (HLA-A0201): stable binding

Molecule: YLLPAVPSL (One or more amino acids changed compared to native peptide sequence) [WT1 C1 (analogue)]
- stability of binding to HLA-A0201 (HLA-A0201): stable binding

Molecule: YMFPNAPYL (One or more amino acids changed compared to native peptide sequence) [WT1 A1 (analogue)]
- recognition of JMN cells by stimulated CD3+ T cells ([1]; FIG. 9 right panel): recognized JMN cells
- lysis of JMN [1, 6]: 44.8%
- stability of binding to HLA-A0201 (HLA-A0201): stable binding
- recognition of MeWo cells by stimulated CD3+ T cells ([5]; MeWo alone or pulsed with WT1 122A1 peptide): not negative control MeWo cells
- lysis of MeWo [5, 6]: 22.2%
- recognition by T cells stimulated with DCs pulsed with 697 tumor lysate (CD3+ T cells [3]; 697 tumor lysate): recognized
